In PubChem BioAssay AID336 (DTP/NCI, 2004) one finds T/C data, which are given here for 18 compounds.

The experiment concerns BDF1 mice, P388/VCR leukemia ip, median survival T/C. Nature of the experiment: NCI In Vivo Anticancer Drug Screen. Data for tumor model P388 Leukemia resistant to Vincristine; NSC 67574 (intraperitoneal) in B6D2F1 (BDF1) mice. The note with it: endpoint: median survival time, higher = longer survival. On the procedure: The antitumor activity of compounds was measured in mice bearing transplantable tumors. Survival or tumor size were measured and the results are expressed as the measurement made in the treated group (T) divided by the measurement made in the vehicle treated control group (C). The tumor model used in this assay is P388 Leukemia resistant to Vincristine; NSC 67574 (intraperitoneal) in B6D2F1 (BDF1) mice

Where [1] appears, read: dose: 1.5 mg/kg/injection, schedule: Q01DX010 (ip), vehicle: saline.
The mark [2] stands for this setting: dose: 3.0 mg/kg/injection, schedule: Q01DX010 (ip), vehicle: saline.
Setting [3] is: dose: 6.0 mg/kg/injection, schedule: Q01DX010 (ip), vehicle: saline.
Where [4] appears, read: dose: 12.0 mg/kg/injection, schedule: Q01DX010 (ip), vehicle: saline.
The mark [5] stands for this setting: dose: 8.0 mg/kg/injection, schedule: Q01DX010 (ip), vehicle: saline.

Several values for one entry are separate records, joined by “and”; a condition that tells them apart may be missing. Equal entries are not always repeated. Toxic doses and inconclusive results are not listed.

Take `Nc1nc2n[nH]nc2c(=O)[nH]1`: the T/C by setting is: (dose: 25.0 mg/kg/injection, schedule: Q01DX010 (ip), vehicle: alkali diluted with saline) 155 % of control and 170 % of control; (dose: 50.0 mg/kg/injection, schedule: Q01DX010 (ip), vehicle: alkali diluted with saline) 162 % of control and 191 % of control; (dose: 100.0 mg/kg/injection, schedule: Q01DX010 (ip), vehicle: alkali diluted with saline) 170 % of control and 204 % of control; (dose: 200.0 mg/kg/injection, schedule: Q01DX010 (ip), vehicle: alkali diluted with saline) 177 % of control and 204 % of control.
Consider `O=C1C(NC(=O)C2CCCCC2)=C(N2CC2)C(=O)C(NC(=O)C2CCCCC2)=C1N1CC1`, for which the T/C is 103 % of control (dose: 25.0 mg/kg/injection, schedule: Q01DX010 (ip), vehicle: saline); 115 % of control (dose: 50.0 mg/kg/injection, schedule: Q01DX010 (ip), vehicle: saline); 115 % of control (dose: 100.0 mg/kg/injection, schedule: Q01DX010 (ip), vehicle: saline); 123 % of control (dose: 200.0 mg/kg/injection, schedule: Q01DX010 (ip), vehicle: saline).
On to `O=C(Nc1ccc(C2=NCCN2)cc1)Nc1cccc(NC(=O)Nc2ccc(C3=NCCN3)cc2)c1`, for which the T/C (dose: 60.0 mg/kg/injection, schedule: Q01DX010 (ip), vehicle: saline) was 179 % of control and 183 % of control; the T/C (dose: 120.0 mg/kg/injection, schedule: Q01DX010 (ip), vehicle: saline) was 241 % of control and 279 % of control; the T/C (dose: 480.0 mg/kg/injection, schedule: Q01DX010 (ip), vehicle: saline) is 108 % of control and 116 % of control.
Consider `CCOC(=O)NP(=O)(N1CC1(C)C)N1CC1(C)C` (stereo not drawn), for which the T/C (dose: 31.3 mg/kg/injection, schedule: Q01DX010 (ip), vehicle: saline) was 117 % of control; the T/C (dose: 125.0 mg/kg/injection, schedule: Q01DX010 (ip), vehicle: saline) was 185 % of control; the T/C (dose: 250.0 mg/kg/injection, schedule: Q01DX010 (ip), vehicle: saline) was 246 % of control.
Regarding `CC/C(=C(/CC)c1ccc(O)cc1)c1ccc(O)cc1`, the T/C (dose: 12.5 mg/kg/injection, schedule: Q01DX010 (sc), vehicle: steriod suspending solution) was 88 % of control and 111 % of control; the T/C (dose: 25.0 mg/kg/injection, schedule: Q01DX010 (sc), vehicle: steriod suspending solution) is 103 % of control; the T/C (dose: 50.0 mg/kg/injection, schedule: Q01DX010 (sc), vehicle: steriod suspending solution) was 100 % of control; the T/C (dose: 100.0 mg/kg/injection, schedule: Q01DX010 (sc), vehicle: steriod suspending solution) was 103 % of control.
Take `N=C(N)c1ccc(Nc2ccc(C(=N)N)cc2)cc1`: the T/C is 106 % of control under setting [1]; 92 % of control and 106 % of control under setting [2]; 89 % of control and 106 % of control under setting [3]; 92 % of control and 113 % of control under setting [4].
Regarding `O=C(Nc1ccc(C2=NCCN2)cc1)c1cccc(C(=O)Nc2ccc(C3=NCCN3)cc2)c1`, the T/C under setting [5] was 118 % of control; the T/C (dose: 16.0 mg/kg/injection, schedule: Q01DX010 (ip), vehicle: saline) is 111 % of control; the T/C (dose: 64.0 mg/kg/injection, schedule: Q01DX010 (ip), vehicle: saline) was 158 % of control.
As to `CO[C@H]1Nc2c(ccc(C)c2O)C(=O)N2C=C(/C=C/C(N)=O)C[C@@H]12`, the T/C reads like this: (dose: 151.0 micrograms/kg/injection, schedule: Q04DX003 (ip), vehicle: saline + alcohol) 113 % of control; (dose: 360.0 micrograms/kg/injection, schedule: Q04DX003 (ip), vehicle: saline + alcohol) 122 % of control.
In the case of `COC(=O)[C@@]12OC[C@]34[C@H]([C@@H](O)[C@@H]1O)[C@@]1(C)CC(=O)C(O)=C(C)[C@@H]1C[C@H]3OC(=O)[C@H](OC(=O)/C=C(\C)C(C)C)[C@@H]24`, the T/C is 103 % of control (dose: 389.0 micrograms/kg/injection, schedule: Q01DX004 (ip), vehicle: saline + alcohol); 98 % of control (dose: 432.0 micrograms/kg/injection, schedule: Q01DX009 (ip), vehicle: saline + alcohol); 109 % of control (dose: 648.0 micrograms/kg/injection, schedule: Q01DX004 (ip), vehicle: saline + alcohol); 100 % of control (dose: 720.0 micrograms/kg/injection, schedule: Q01DX009 (ip), vehicle: saline + alcohol).
On to `CN(Cc1cnc2nc(N)nc(N)c2n1)c1ccc(C(=O)N[C@@H](CCC(=O)O)C(=O)O)cc1`, for which the T/C (dose: 8.64 mg/kg/injection, schedule: Q04DX003 (ip), vehicle: sodium bicarbonate) is 167 % of control; the T/C (dose: 14.4 mg/kg/injection, schedule: Q04DX003 (ip), vehicle: sodium bicarbonate) was 188 % of control; the T/C (dose: 24.0 mg/kg/injection, schedule: Q04DX003 (ip), vehicle: sodium bicarbonate) is 214 % of control.
With `COC(=O)Nc1nc2ccc(C(=O)c3cccs3)cc2[nH]1`, the T/C runs as follows: (dose: 21.6 mg/kg/injection, schedule: Q04DX003 (ip), vehicle: other) 151 % of control; (dose: 36.0 mg/kg/injection, schedule: Q04DX003 (ip), vehicle: other) 242 % of control; (dose: 60.0 mg/kg/injection, schedule: Q04DX003 (ip), vehicle: other) 189 % of control.
`CN=C(NC)c1ccc(NC(=O)Nc2ccc(NC(=O)Nc3ccc(C(=NC)NC)cc3)cc2)cc1`: the T/C was 150 % of control (dose: 13.3 mg/kg/injection, schedule: Q01DX010 (ip), vehicle: saline); 100 % of control (dose: 20.0 mg/kg/injection, schedule: Q01DX010 (ip), vehicle: saline); 504 % of control (dose: 30.0 mg/kg/injection, schedule: Q01DX010 (ip), vehicle: saline).
Turning to `O=NN(CCCl)C(=O)NCCCl`, the T/C is 300 % of control (dose: 6.25 mg/kg/injection, schedule: Q01DX010 (ip), vehicle: saline); 188 % of control and 300 % of control (dose: 12.5 mg/kg/injection, schedule: Q01DX010 (ip), vehicle: saline); 151 % of control (dose: 13.0 mg/kg/injection, schedule: Q01DX001 (ip), vehicle: saline); 164 % of control (dose: 21.6 mg/kg/injection, schedule: Q01DX001 (ip), vehicle: saline); 212 % of control (dose: 36.0 mg/kg/injection, schedule: Q01DX001 (ip), vehicle: saline).
For the compound `C[n+]1ccc(NC(=O)c2ccc(NC(=O)c3cccc(C(=O)Nc4ccc(C(=O)Nc5cc[n+](C)cc5)cc4)c3)cc2)cc1`, the T/C (dose: 5.0 mg/kg/injection, schedule: Q01DX010 (ip), vehicle: saline) is 100 % of control; the T/C (dose: 10.0 mg/kg/injection, schedule: Q01DX010 (ip), vehicle: saline) was 107 % of control; the T/C (dose: 40.0 mg/kg/injection, schedule: Q01DX010 (ip), vehicle: saline) is 166 % of control.
Turning to `COc1cc(NS(C)(=O)=O)ccc1Nc1c2ccccc2nc2ccccc12`, the T/C reads like this: (dose: 3.6 mg/kg/injection, schedule: Q04DX003 (ip), vehicle: clinical formulation) 188 % of control; (dose: 3.6 mg/kg/injection, schedule: Q04DX003 (ip), vehicle: other) 122 % of control; (dose: 6.0 mg/kg/injection, schedule: Q04DX003 (ip), vehicle: clinical formulation) 191 % of control; (dose: 10.0 mg/kg/injection, schedule: Q04DX003 (ip), vehicle: clinical formulation) 193 % of control; (dose: 10.0 mg/kg/injection, schedule: Q04DX003 (ip), vehicle: other) 153 % of control; (dose: 16.7 mg/kg/injection, schedule: Q04DX003 (ip), vehicle: clinical formulation) 107 % of control. For the same compound, the T/C (dose: 16.7 mg/kg/injection, schedule: Q04DX003 (ip), vehicle: other) was 88 % of control.
As for `Nc1ncnc2[nH]ncc12`, the T/C under setting [1] is 88 % of control; the T/C under setting [2] is 88 % of control; the T/C under setting [3] is 88 % of control and 103 % of control; the T/C under setting [4] is 119 % of control.
With `C=CC(CN1CC1)OC(C)=O` (stereo not drawn), the T/C runs as follows: (dose: 2.0 mg/kg/injection, schedule: Q01DX010 (ip), vehicle: saline) 116 % of control; under setting [5], 123 % of control.
For `CC1CC(C)(O)CC(C(O)CC2CC(=O)NC(=O)C2)C1=O` (stereo not drawn), the T/C is 105 % of control (dose: 480.0 micrograms/kg/injection, schedule: Q01DX009 (ip), vehicle: saline) and 92 % of control (dose: 800.0 micrograms/kg/injection, schedule: Q01DX009 (ip), vehicle: saline).
